Measured values taken from patent publication US11958815B1, “N′-(2-(5-phenyl-1,3,4-oxadiazol-2-ylthio)acetoxy)-2-naphthimidamide as antimicrobial compound” (KING FAISAL UNIVERSITY, priority 2023, dated 2024).

Columns and labels:
Staphylococcus aureus = experiment: Agar plate disc-diffusion, antibacterial activity by inhibition zone; conditions: nutrient agar, 37° C., 48 hours, DMSO zone subtracted
Aspergillus flavus = experiment: Agar plate disc-diffusion, antifungal activity by inhibition zone; conditions: Sabouraud's dextrose agar, 37° C., 72 hours, DMSO zone subtracted
Escherichia coli = experiment: Agar plate disc-diffusion, antibacterial activity by inhibition zone; conditions: nutrient agar, 37° C., 48 hours, DMSO zone subtracted
Pseudomonas aeruginosa = experiment: as above; conditions: nutrient agar, 37° C., 48 hours, DMSO zone subtracted
[1] = system: Chrysosporium keratinophilum; experiment: Agar plate disc-diffusion, antifungal activity by inhibition zone; conditions: Sabouraud's dextrose agar, 37° C., 72 hours, DMSO zone subtracted
Bacillus cereus = experiment: Agar plate disc-diffusion, antibacterial activity by inhibition zone; conditions: nutrient agar, 37° C., 48 hours, DMSO zone subtracted
[2] = A = concentration of comp. = 10,000 μL
[3] = B = concentration of comp. = 30.000 μL
[4] = C = concentration of comp. = 50,000 μL

Compound: N/C(=N\OC(=O)CSc1nnc(-c2ccccc2)o1)c1ccc2ccccc2c1 [Comp 3, N′-(2-(5-phenyl-1,3,4-oxadiazol-2-ylthio)acetoxy)-2-naphthimidamide]
- inhibition zone, Staphylococcus aureus (Staphylococcus aureus; [2]): 25 mm
- inhibition zone, Staphylococcus aureus (Staphylococcus aureus; [3]): 31 mm
- inhibition zone, Staphylococcus aureus (Staphylococcus aureus; [4]): 40 mm
- inhibition zone, Aspergillus flavus (Aspergillus flavus; [2]): 26 mm
- inhibition zone, Aspergillus flavus (Aspergillus flavus; [3]): 29 mm
- inhibition zone, Aspergillus flavus (Aspergillus flavus; [4]): 39 mm
- inhibition zone, Escherichia coli (Escherichia coli; [2]): 31 mm
- inhibition zone, Escherichia coli (Escherichia coli; [3]): 39 mm
- inhibition zone, Escherichia coli (Escherichia coli; [4]): 48 mm
- inhibition zone, Pseudomonas aeruginosa (Pseudomonas aeruginosa; [2]): 27 mm
- inhibition zone, Pseudomonas aeruginosa (Pseudomonas aeruginosa; [3]): 34 mm
- inhibition zone, Pseudomonas aeruginosa (Pseudomonas aeruginosa; [4]): 40 mm
- inhibition zone, Chrysosporium keratinophilum [1, 2]: 31 mm
- inhibition zone, Chrysosporium keratinophilum [1, 3]: 39 mm
- inhibition zone, Chrysosporium keratinophilum [1, 4]: 45 mm
- inhibition zone, Bacillus Cereus (Bacillus cereus; [2]): 28 mm
- inhibition zone, Bacillus Cereus (Bacillus cereus; [3]): 32 mm
- inhibition zone, Bacillus Cereus (Bacillus cereus; [4]): 40 mm
